What was measured:
Format in all cases: cell-based
[1] = molecular target: T1, EGFR exon 20 NPG Ins D770_N771 (Ba/F3 cells) (Homo sapiens, UniProt P00533, INS770NPG); test: Inhibitor activity on EGFR-dependent cell growth (CellTiter-Glo, 72 h), Ba/F3 EGFR exon 20 NPG Ins; settings: read-out: BaF3 NPG IC50
T1 construct: expressed in transfected cells; host or cells: Ba/F3 (murine pro-B cells), retroviral transduction, puromycin selection, IL3-independent pool
Procedure, shortened: (§1)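 IC50s derive from a sigmoidal dose–response fit of CellTiter-Glo signal. The signal was normalised between […]-treated cells and cell-free medium. Ba/F3 mutant-EGFR cells, seeded at 400–800/well depending on the line, had 72 h of exposure to a 10-point, 3-fold compound series.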

EGFR WT (Ba/F3 cells) = molecular target: T2, EGFR WT (Ba/F3 cells) (Homo sapiens, UniProt P00533); test: Inhibitor activity on EGFR-dependent cell growth (CellTiter-Glo, 72 h), Ba/F3 EGFR WT; settings: read-out: BaF3 WT IC50
T2 construct: expressed in transfected cells; host or cells: Ba/F3 (murine pro-B cells), retroviral transduction, puromycin selection, maintained with EGF
Procedure, shortened: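 This growth assay used Ba/F3 cells that depend on wild-type EGFR and are kept in EGF without IL3. Compounds were made up as 10 mM DMSO stocks and diluted 3-fold over 10 points. 120 nL went onto 600 cells/well. After 72 hours, 40 μL CellTiter-Glo was added and luminescence read on EnVision after 30 min.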

[2] = molecular target: T3, EGFR exon 20 ASV Ins V769_D770 (Ba/F3 cells) (Homo sapiens, UniProt P00533, INS769ASV); test: Inhibitor activity on EGFR-dependent cell growth (CellTiter-Glo, 72 h), Ba/F3 EGFR exon 20 ASV Ins; settings: read-out: BaF3 ASV IC50
T3 construct: expressed in transfected cells; host or cells: Ba/F3 (murine pro-B cells), retroviral transduction, puromycin selection, IL3-independent pool
Procedure, shortened: as §1

[3] = molecular target: T4, EGFR exon 20 FQEA Ins A763_V764 (Ba/F3 cells) (Homo sapiens, UniProt P00533, INS763FQEA); test: Inhibitor activity on EGFR-dependent cell growth (CellTiter-Glo, 72 h), Ba/F3 EGFR exon 20 FQEA Ins; settings: read-out: BaF3 FQEA IC50
T4 construct: expressed in transfected cells; host or cells: Ba/F3 (murine pro-B cells), retroviral transduction, puromycin selection, IL3-independent pool
Procedure, shortened: (§2)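 72 h proliferation, Ba/F3 EGFR mutants (no IL3, puromycin-selected pools, EGFR confirmed by Western blot). Seeding of 400 L858R, 600 L858R/C797S and 800 exon 19del/FQEA cells per well. CellTiter-Glo used; controls were […] (high) and medium alone (low).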

[4] = molecular target: T1, EGFR exon 20 NPG Ins D770_N771 (Ba/F3 cells); test: Inhibitor activity on EGFR phosphorylation (pEGFR AlphaLISA, 2 h), Ba/F3 EGFR exon 20 NPG Ins
Procedure, shortened: (§3)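 pEGFR AlphaLISA readout after 2 h compound exposure; IC50 from 10-point, 3-fold dilutions (10 mM DMSO stock). Ba/F3 mutant lines grown without IL3, 50K cells/well; CUTO14 12.5K cells/well.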

[5] = molecular target: T3, EGFR exon 20 ASV Ins V769_D770 (Ba/F3 cells); test: Inhibitor activity on EGFR phosphorylation (pEGFR AlphaLISA, 2 h), Ba/F3 EGFR exon 20 ASV Ins; settings: EGFR phosphorylation, AlphaLISA, 2 hours; read-out: ASV IC50 (pEGFR)
Procedure, shortened: as §3

EGFR L858R (Ba/F3 cells) [6] = molecular target: T5, EGFR L858R (Ba/F3 cells) (Homo sapiens, UniProt P00533, L858R); test: Inhibitor activity on EGFR phosphorylation (pEGFR AlphaLISA, 2 h), Ba/F3 EGFR L858R
T5 construct: expressed in transfected cells; host or cells: Ba/F3 (murine pro-B cells), retroviral transduction, puromycin selection, IL3-independent pool
Procedure, shortened: as §3

[7] = molecular target: T6, EGFR exon 20 SVD Ins D770_N771 (Ba/F3 cells) (Homo sapiens, UniProt P00533, INS770SVD); test: Inhibitor activity on EGFR-dependent cell growth (CellTiter-Glo, 72 h), Ba/F3 EGFR exon 20 SVD Ins; settings: read-out: BaF3 SVD IC50
T6 construct: expressed in transfected cells; host or cells: Ba/F3 (murine pro-B cells), retroviral transduction, puromycin selection, IL3-independent pool
Procedure, shortened: as §1

[8] = molecular target: T7, EGFR L858R/C797S (Ba/F3 cells) (Homo sapiens, UniProt P00533, C797S/L858R); test: Inhibitor activity on EGFR phosphorylation (pEGFR AlphaLISA, 2 h), Ba/F3 EGFR L858R/C797S
T7 construct: expressed in transfected cells; host or cells: Ba/F3 (murine pro-B cells), retroviral transduction, puromycin selection, IL3-independent pool
Procedure, shortened: as §3

[9] = molecular target: T8, EGFR exon 19del (Ba/F3 cells) (Homo sapiens, UniProt P00533); test: Inhibitor activity on EGFR phosphorylation (pEGFR AlphaLISA, 2 h), Ba/F3 EGFR exon 19del; settings: read-out: Del19 IC50 (pEGFR)
Procedure, shortened: as §3

[10] = molecular target: T8, EGFR exon 19del (Ba/F3 cells); test: Inhibitor activity on EGFR-dependent cell growth (CellTiter-Glo, 72 h), Ba/F3 EGFR exon 19del; settings: Ba/F3 EGFR exon 19del cell growth, read-out: BaF3 Del19 IC50
Procedure, shortened: as §2

EGFR L858R (Ba/F3 cells) [11] = molecular target: T5, EGFR L858R (Ba/F3 cells); test: Inhibitor activity on EGFR-dependent cell growth (CellTiter-Glo, 72 h), Ba/F3 EGFR L858R; settings: read-out: BaF3 L858R IC50
Procedure, shortened: as §2

EGFR (CUTO14 cells) = EGFR (CUTO14 cells) (Homo sapiens, UniProt P00533); test: Inhibitor activity on EGFR phosphorylation (pEGFR AlphaLISA, 2 h), CUTO14 cells
Procedure, shortened: as §3

[12] = molecular target: T7, EGFR L858R/C797S (Ba/F3 cells); test: Inhibitor activity on EGFR-dependent cell growth (CellTiter-Glo, 72 h), Ba/F3 EGFR L858R/C797S; settings: read-out: BaF3 L858R/C797S IC50
Procedure, shortened: as §2

[13] = molecular target: T6, EGFR exon 20 SVD Ins D770_N771 (Ba/F3 cells); test: Inhibitor activity on EGFR phosphorylation (pEGFR AlphaLISA, 2 h), Ba/F3 EGFR exon 20 SVD Ins
Text: Example B. Inhibitor Activity on EGFR phosphorylation (pEGFR)
EGFR mutant Ba/F3 cells were generated by transduction with retrovirus containing vectors expressing EGFR L858R, EGFR exon 19del, EGFR L858R/C797S, EGFR exon 20 NPG Ins D770_N771, EGFR exon 20 ASV Ins V769_D770, or EGFR exon 20 SVD Ins D770_N771 genes along with a puromycin selection marker. Transduced cells are selected with puromycin for 7 days and are then be transferred into culture media without Interleukin 3 (IL3). Surviving cells are confirmed to express EGFR by Western blot and maintained as a pool. CUTO14 cells were obtained from Dr. Robert C. Doebele at the University of Colorado. The IC50 date are included in Table 6 and Table 7.
1.1 Cells are harvested from flask into cell culture medium and the cell number counted.
1.2 Cells are diluted with culture medium to the desired density and 40 μL of cell suspension is added into each well of 384-well cell culture plate and the seeding density is 50K cells/well (Ba/F3) or 12.5K cells/well (CUTO14).
2 Compound Preparation and Treatment
2.1 Test compounds are dissolved to 10 mM in a DMSO stock solution. 45 μL of stock solution is transferred to a 384 polypropylene plate (pp-plate). Perform 3-fold, 10-point dilution via transferring 15 μL compound into 30 μL DMSO using a TECAN (EVO200) liquid handler.
2.2 Spin plates at room temperature at 1,000 RPM for 1 minute.
2.3 Transfer 5 nL of diluted compound from compound source plate into the cell plate.
2.4 After compound treatment for 2 hours, perform pEGFR detection by AlphaLISA for compound treatment plates as described in “Detection” section.
3 Detection by pEGFR AlphaLISA (Perkin-Elmer)
3.1 Plates are removed from incubators and equilibrated at room temperature for 10 minutes, and media was removed
3.2 10 μL of lysis buffer is added and plates shaken at 600 rpm for 1 hr.
3.3 Prepare acceptor mix just before use and dispense 5 μL of acceptor mix to all the wells. Shake 350 rpm for Ihr in the dark
3.4 Prepare donor mix under low light conditions prior to use. Dispense 5 μL of donor mix to all the wells. Mix well on the shaker, seal and wrap in aluminum foil and incubate 1.5 hrs at room temperature in the dark
3.5 Transfer 18.5 μL mixture to OptiPlate 384, and read using an Envision. The IC50 date were included in Table 6 and Table 7.

T7 sequence (P00533 25-1210 C797S/L858R): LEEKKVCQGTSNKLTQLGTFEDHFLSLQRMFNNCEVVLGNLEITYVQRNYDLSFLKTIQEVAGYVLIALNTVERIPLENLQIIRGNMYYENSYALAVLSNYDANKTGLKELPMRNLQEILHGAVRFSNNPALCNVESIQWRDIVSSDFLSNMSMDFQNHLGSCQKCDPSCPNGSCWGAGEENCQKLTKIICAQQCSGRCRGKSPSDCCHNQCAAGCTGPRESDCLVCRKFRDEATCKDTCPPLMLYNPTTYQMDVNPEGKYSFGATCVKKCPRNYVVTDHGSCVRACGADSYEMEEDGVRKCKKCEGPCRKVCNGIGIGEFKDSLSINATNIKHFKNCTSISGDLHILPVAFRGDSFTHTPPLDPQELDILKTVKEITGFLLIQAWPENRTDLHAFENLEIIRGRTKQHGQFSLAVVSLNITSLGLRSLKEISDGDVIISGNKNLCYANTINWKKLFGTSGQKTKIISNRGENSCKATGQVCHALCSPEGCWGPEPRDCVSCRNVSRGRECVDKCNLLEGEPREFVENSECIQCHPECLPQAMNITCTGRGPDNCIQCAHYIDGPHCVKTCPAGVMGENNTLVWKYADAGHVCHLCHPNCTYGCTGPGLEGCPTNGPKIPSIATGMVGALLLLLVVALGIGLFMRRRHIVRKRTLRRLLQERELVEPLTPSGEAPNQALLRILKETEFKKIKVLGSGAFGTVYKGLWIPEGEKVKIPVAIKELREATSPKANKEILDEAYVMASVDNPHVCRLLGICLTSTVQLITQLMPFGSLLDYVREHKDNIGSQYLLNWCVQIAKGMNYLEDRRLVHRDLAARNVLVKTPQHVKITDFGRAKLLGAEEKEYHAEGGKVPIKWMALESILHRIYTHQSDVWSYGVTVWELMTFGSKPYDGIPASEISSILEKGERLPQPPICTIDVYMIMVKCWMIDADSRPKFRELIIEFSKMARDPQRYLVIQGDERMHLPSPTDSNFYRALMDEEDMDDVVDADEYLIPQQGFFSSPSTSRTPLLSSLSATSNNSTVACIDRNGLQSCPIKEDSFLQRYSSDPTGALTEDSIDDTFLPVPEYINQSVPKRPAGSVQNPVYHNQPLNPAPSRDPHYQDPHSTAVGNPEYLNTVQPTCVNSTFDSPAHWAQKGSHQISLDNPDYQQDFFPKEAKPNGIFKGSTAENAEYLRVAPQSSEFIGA
T3 sequence (P00533 with tags, fused parts or gaps INS769ASV): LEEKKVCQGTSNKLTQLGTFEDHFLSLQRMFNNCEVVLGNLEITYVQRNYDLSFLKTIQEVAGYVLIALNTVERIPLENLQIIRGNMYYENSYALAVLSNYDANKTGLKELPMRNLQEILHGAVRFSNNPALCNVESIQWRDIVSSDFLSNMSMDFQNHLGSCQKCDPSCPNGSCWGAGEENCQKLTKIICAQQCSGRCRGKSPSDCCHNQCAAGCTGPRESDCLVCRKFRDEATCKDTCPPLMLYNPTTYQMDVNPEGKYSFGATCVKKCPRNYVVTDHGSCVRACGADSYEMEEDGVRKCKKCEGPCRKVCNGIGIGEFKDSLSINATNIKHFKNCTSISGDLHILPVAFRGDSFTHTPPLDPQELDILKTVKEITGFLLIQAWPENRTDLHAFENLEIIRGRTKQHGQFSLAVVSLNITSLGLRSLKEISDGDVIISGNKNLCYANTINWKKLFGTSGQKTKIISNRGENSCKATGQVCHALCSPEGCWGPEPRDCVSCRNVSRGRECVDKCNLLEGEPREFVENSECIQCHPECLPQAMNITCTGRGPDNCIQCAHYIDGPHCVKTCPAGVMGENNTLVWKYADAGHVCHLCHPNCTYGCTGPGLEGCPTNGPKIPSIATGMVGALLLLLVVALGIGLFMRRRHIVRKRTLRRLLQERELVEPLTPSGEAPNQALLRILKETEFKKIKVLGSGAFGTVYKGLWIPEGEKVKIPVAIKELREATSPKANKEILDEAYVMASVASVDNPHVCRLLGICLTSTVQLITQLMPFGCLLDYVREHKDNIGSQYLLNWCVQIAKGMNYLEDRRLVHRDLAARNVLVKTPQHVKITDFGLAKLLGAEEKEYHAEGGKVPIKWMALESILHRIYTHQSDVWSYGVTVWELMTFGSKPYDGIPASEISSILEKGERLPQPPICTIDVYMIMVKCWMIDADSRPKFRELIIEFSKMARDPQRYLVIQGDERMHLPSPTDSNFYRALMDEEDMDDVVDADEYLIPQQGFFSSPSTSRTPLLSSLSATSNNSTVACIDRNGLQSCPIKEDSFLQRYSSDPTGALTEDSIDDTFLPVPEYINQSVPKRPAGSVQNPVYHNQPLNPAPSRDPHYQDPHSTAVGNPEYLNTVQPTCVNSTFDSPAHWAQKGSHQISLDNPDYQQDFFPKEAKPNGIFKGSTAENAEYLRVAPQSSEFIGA
T1 sequence (P00533 with tags, fused parts or gaps INS770NPG): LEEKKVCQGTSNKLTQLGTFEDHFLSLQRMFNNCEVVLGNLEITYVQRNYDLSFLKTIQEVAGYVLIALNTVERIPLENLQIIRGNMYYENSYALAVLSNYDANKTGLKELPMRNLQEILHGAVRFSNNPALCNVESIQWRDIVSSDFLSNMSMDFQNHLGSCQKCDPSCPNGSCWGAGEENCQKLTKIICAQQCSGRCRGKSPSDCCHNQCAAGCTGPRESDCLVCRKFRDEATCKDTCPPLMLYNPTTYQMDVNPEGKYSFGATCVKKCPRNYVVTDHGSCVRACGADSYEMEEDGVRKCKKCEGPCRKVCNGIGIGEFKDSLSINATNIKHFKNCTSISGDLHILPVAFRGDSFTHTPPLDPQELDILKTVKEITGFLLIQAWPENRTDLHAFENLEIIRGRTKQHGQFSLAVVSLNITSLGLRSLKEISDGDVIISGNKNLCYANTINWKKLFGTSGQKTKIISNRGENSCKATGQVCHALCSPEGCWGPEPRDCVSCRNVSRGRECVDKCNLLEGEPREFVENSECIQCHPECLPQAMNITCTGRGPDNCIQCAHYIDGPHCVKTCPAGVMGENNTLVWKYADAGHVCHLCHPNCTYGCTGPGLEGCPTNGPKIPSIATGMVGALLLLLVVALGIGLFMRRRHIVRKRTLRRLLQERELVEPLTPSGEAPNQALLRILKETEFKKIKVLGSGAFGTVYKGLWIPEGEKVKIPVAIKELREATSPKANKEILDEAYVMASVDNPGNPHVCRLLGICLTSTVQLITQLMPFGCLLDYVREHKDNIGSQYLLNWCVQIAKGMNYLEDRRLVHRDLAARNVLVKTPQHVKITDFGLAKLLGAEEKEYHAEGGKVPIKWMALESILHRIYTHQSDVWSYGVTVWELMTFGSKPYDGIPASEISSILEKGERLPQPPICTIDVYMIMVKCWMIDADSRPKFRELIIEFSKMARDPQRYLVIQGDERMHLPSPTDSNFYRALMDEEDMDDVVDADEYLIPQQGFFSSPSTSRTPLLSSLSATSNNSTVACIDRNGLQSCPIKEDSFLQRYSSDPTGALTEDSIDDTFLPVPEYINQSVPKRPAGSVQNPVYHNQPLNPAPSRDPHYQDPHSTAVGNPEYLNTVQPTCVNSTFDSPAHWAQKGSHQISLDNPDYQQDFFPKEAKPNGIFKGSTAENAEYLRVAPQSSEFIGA
T2 sequence (P00533 25-1210): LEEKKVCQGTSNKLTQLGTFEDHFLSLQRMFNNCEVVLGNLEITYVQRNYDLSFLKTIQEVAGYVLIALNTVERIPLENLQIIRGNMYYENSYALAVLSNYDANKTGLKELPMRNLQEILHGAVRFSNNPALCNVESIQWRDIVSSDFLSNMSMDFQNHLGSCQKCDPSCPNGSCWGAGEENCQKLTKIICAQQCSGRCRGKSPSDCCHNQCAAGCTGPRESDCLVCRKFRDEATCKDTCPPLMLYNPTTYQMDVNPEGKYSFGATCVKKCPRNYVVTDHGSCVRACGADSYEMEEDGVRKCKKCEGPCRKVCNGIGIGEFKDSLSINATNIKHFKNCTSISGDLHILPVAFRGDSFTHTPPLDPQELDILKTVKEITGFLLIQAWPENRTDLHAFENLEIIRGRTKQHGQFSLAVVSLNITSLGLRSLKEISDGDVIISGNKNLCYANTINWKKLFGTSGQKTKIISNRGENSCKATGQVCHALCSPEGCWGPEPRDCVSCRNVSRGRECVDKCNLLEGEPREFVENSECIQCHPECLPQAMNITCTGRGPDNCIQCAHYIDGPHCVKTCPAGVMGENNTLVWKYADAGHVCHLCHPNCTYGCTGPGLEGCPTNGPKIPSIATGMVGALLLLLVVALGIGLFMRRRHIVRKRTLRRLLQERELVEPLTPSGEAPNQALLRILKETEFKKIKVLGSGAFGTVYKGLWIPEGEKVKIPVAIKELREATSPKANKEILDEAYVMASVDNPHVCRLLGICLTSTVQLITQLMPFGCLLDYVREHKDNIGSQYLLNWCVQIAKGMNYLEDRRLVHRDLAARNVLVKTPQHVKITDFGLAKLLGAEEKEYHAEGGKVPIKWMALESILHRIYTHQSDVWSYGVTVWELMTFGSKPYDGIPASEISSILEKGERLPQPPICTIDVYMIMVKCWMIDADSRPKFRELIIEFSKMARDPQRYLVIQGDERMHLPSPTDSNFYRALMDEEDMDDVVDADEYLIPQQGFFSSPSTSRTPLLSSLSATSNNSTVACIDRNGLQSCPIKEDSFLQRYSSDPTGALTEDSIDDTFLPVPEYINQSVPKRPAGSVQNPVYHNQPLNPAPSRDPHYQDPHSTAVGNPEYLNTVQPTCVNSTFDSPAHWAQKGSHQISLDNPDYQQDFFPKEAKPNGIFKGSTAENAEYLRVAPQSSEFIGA

| Structure (SMILES) | IC50 [1] [nM] | IC50 (EGFR WT (Ba/F3 cells)) [nM] | IC50 [2] [nM] | IC50 [3] [nM] | IC50 [4] [nM] | IC50 [5] [nM] | IC50 (EGFR L858R (Ba/F3 cells) [6]) [nM] | IC50 [7] [nM] | IC50 [8] [nM] | IC50 [9] [nM] | IC50 [10] [nM] | IC50 (EGFR L858R (Ba/F3 cells) [11]) [nM] | IC50 (EGFR (CUTO14 cells)) [nM] | IC50 [12] [nM] | IC50 [13] [nM] |
| --- | --- | --- | --- | --- | --- | --- | --- | --- | --- | --- | --- | --- | --- | --- | --- |
| COCC[C@H]1CNC(=O)c2c1[nH]c(-c1ccnc(C)n1)c2Nc1cccc(Cl)c1OC [463b] | < 100 | 100 to 1000 | < 100 | < 100 | < 100 | < 100 | < 100 | < 100 | < 100 | < 100 | < 100 | < 100 | < 100 | < 100 | < 100 |
| COCC[C@@H]1CNC(=O)c2c1[nH]c(-c1ccncc1F)c2Nc1cccc(F)c1OC [421b] | < 100 | 100 to 1000 | < 100 | < 100 | < 100 | < 100 | < 100 | < 100 | < 100 | < 100 | < 100 | < 100 | < 100 | < 100 | < 100 |
| COCC[C@@H]1CNC(=O)c2c1[nH]c(-c1ccncn1)c2Nc1cccc(Cl)c1OC [445a] | < 100 | 100 to 1000 | < 100 | < 100 | < 100 | < 100 | < 100 | < 100 | < 100 | < 100 | < 100 | < 100 | < 100 | < 100 | < 100 |

Continued, values first:

| IC50 [1] [nM] | IC50 (EGFR WT (Ba/F3 cells)) [nM] | IC50 [2] [nM] | IC50 [3] [nM] | IC50 [4] [nM] | IC50 [5] [nM] | IC50 (EGFR L858R (Ba/F3 cells) [6]) [nM] | IC50 [7] [nM] | IC50 [8] [nM] | IC50 [9] [nM] | IC50 [10] [nM] | IC50 (EGFR L858R (Ba/F3 cells) [11]) [nM] | IC50 (EGFR (CUTO14 cells)) [nM] | IC50 [12] [nM] | IC50 [13] [nM] | Structure (SMILES) |
| --- | --- | --- | --- | --- | --- | --- | --- | --- | --- | --- | --- | --- | --- | --- | --- |
| < 100 | 100 to 1000 | < 100 | < 100 | < 100 | < 100 | < 100 | < 100 | < 100 | < 100 | < 100 | < 100 | < 100 | < 100 | < 100 | COc1c(F)cccc1Nc1c(-c2ccncc2F)[nH]c2c1C(=O)NC[C@@H]2CC1COCCO1 (stereo in doubt) [Compound 525, (7S)-7-[(2R)-1,4-dioxan-2-ylmethyl]-3-[(3-fluoro-2-methoxyphenyl)amino]-2-(3-fluoropyridin-4-yl)-1H,5H,6H,7H-pyrrolo[3,2-c]pyridin-4-one] |
| < 100 | < 100 | < 100 | < 100 | < 100 | < 100 | < 100 | < 100 | < 100 | < 100 | < 100 | < 100 | < 100 | < 100 | < 100 | COc1c(F)cccc1Nc1c(-c2ccncc2F)[nH]c2c1C(=O)NCC2C[C@@H]1COCCO1 (single isomer, unassigned) [Compound 566] |

Source: patent publication US20240101576A1, “HETEROCYCLIC INHIBITORS OF EGFR AND/OR HER2, FOR USE IN THE TREATMENT OF CANCER” (Scorpion Therapeutics, Inc., priority 2020, published 2024)
